# Reference: patent US8906858B2, “Method for the prophylactic or therapeutic treatment of glucocorticoid-induced osteoporosis” (Fritz-Lipmann-Institut E. V. Leibniz-Institut Fuer …, priority 2010, dated 2014)
# “Also recorded” adds a separate entry of the source. Where two headings read alike, the source gives them in different places.
# Legend:
# primary osteoblasts = details: 10^−6 M CpdA, OI differentiation
# Protocol: (§1) FIG. 19. […] A) Cells were fixed and stained for ALP activity after 10 d and for mineralization of the matrix using Alizarin red after 20 d of culture. B) mRNA expression levels of osteoblast marker genes are shown, indicated as arbitrary units of actin expression.
# (§2) FIG. 22. Determination of alkaline phosphatase activity (ALP) and corresponding IL-11 levels with ELISA 48 hrs after induction. A) Primary osteoblasts of wild type mice were cultured for 10 days with osteogenic inducers (OI) or 0.5 ng/ml IL-11 compared to untreated cells (ctr). Cells were fixed and stained for alkaline phosphatase activity (ALP). The corresponding IL-11 levels were determined with ELISA 48 hrs after induction.
# DBA/1 mice = details: CpdA (300 ug) daily for 8 d
# Protocol: as §1, §2
# [1] = tested on: Mouse embryonic fibroblasts; assay: Functional screening assay, automated fluorescent microscopy of ALP activity and cytokines; type: cell-based
# Protocol: Automated fluorescent microscopy for high content screening of factors involved in osteoblast differentiation. (A) In osteogenic differentiated (OI) wild type MEFs ALP activity is shown by a fluorescent product (ELF®, green) and nuclei are indicated by DRAQ5® staining (red).
# 500 Mouse embryonic fibroblasts are seeded per 384 well (2000 cells into a 96 well) until confluency (approx. 2 days). […] 3.7% Formalin is added (50 μl).
# Differentiation of osteoblasts treated either with agents to be tested or with RNAi will be determined by staining for alkaline phosphatase activity (ALP kit; Sigma, Inc. or ELF® Phosphatase Detection Kit, ATCC). The preserved anti-inflammatory activity is monitored by immunhistochemical staining with antibodies against IL-6 and CXCL10. The avoidance to affect IL-11 and LIF expression is additionally determined by immunohistochemistry as well.
# After fixation, the wells are stained with the nuclear stain DRAQ5 and a fluorescent substrate (ELF) for alkaline phosphatase activity. This allows monitoring cellular ALP activity by automatic microscopy and evaluation with the respective software (FIG. 17).
# Immunohistochemical staining towards the antibodies IL-6, CXCL10, IL-11 and/or LIF follows as a last step. Fluorescent signals of the antibodies will be monitored by automatic microscopy and evaluation with the respective software.
# MMP-13 = details: monocytic cells
# IL-11 signaling = details: primary osteoblasts, 10^−6 M CpdA
# Protocol: (§3) FIG. 18. […] B) After 6 h of cultivation, IL-11 mRNA expression levels were measured from total RNA extracts. C) IL-11 protein was measured in the supernatant using ELISA after 36 h of culture (n=3; Beta-actin was used for standardisation). *P<0.05, **P<0.01; 1-way ANOVA followed by Dunnett's multiple comparison test. […] E) Western blot analysis is shown for STAT3 phosphorylation of bones from GR^Runx2Cre mice subjected to organ cultures, treated as in D for 36 h.
# [2] = tested on: Cxcl10 and IL-6 mRNA expression; details: primary osteoblasts, 10^−6 M CpdA, 6 h
# Protocol: as §3
# bone tissue of mice = assay: Osteoblast proliferation and apoptosis in vivo (BrdU, TUNEL); set-up: species or system mouse; details: prednisolone for one day
# Protocol: FIG. 10. Proliferation and apoptosis in bones of prednisolone treated GR^Runx2Cre animals. (A, B). GR^flox and GR^Runx2Cre mice were treated with prednisolone for one day pulsed with BrdU for 4 hours and histological sections of long bones stained with anti-BrdU antibody (A) and with a TUNEL kit (B). BM: bone marrow; Scale bar: 20 μm.
# Mice were treated with prednisolone (12.5 mg/kg/d) for one day and they got pulsed with 10 μg/g body weight BrdU 4 hours before dissection. Decalcified deparaffined femur sections were stained with the In situ Cell Death Detection Kit (Roche) for apoptosis and rat anti-BrdU (Abcam) following Peroxidase coupled anti-rat IgG for proliferation.
# [3] = tested on: Female 9 week old FVB/N mice; assay: LIF administration to prednisolone treated mice, MicroCT analysis; type: in vivo, mouse
# Protocol: FIG. 23. LIF treatment elevates bone density of prednisolone treated mice. Female 9 week old FVB/N mice were treated with control pellets (sham), prednisolone (Pred) releasing pellets (12 mg/kg/day releasing rate) and were treated one day later with PBS and LIF i.p. injections twice a day (0.2 mg/kg/day) until 15 days. Mice were sacrificed on day 16. MicroCT Analysis was performed and representative longitudinal sections shown in (A), Bone Volume/Tissue volume determined (B) and trabecular thickness and trabecular numbers calculated (C, D). n=6, * p<0.05, ** p<0.01, *** p<0.001
# After 15 days the bone mineral density was determined by micro computertomography (FIG. 23).
# Female 9 week old FVB/N mice were treated with control pellets (sham), prednisolone (Pred) releasing pellets (12 mg/kg/day releasing rate) and were treated one day later with PBS and LIF i.p. injections twice a day (0.2 mg/kg/day) until 15 days. Mice were sacrificed on day 16.
# [4] = tested on: osteoblastogenesis in bone marrow / long bones of mice; assay: CFU-OBs and Col1a1 mRNA in long bones after three days of prednisolone; type: in vivo, mouse; details: for Col1a1 expression in long bones / osteoblastogenesis, colony forming units of osteoblasts (CFU-OBs): three days of prednisolone
# Excerpt: (G) Number of CFU-OBs within the bone marrow/leg (femur and tibia) and (H) qRT-PCR-determined Col1a1 mRNA expression in long bones of mice treated with placebo or prednisolone for three days.
# (F) Number of CFU-OBs within the bone marrow/leg and (G) qRT-PCR-determined Col1a1 mRNA expression in long bones of mice treated with placebo or prednisolone for three days.
# CFU-OBs per leg were obtained by counting Alizarin Red-positive colonies of 2×10^6 bone marrow cells (excluding erythrocytes) plated per 6-well after 20 days under osteogenic conditions.
# [5] = tested on: primary wild type osteoblasts; assay: Soluble factors added to osteoblasts during osteogenic induction in presence or absence of Dex; type: cell-based, mouse; details: day 10, with Dex
# Protocol: FIG. 7. Differential gene regulation in GR^dim osteoblasts and bone organs by GCs and involvement of AP-1 in suppression of IL-11 in osteoblast differentiation. (A-E) Primary osteoblasts were grown until confluence and treated as described in FIG. 4A. qRT-PCR-determined mRNA expression levels of GILZ, Per-1, KLF15, Lif (LIF) and II11 (IL-11) after six hours. (F-H) qRT-PCR-determined mRNA expression level of IL-11 in organ cultures of GR mutant fetal hind legs (F), in dN^Runx2Cre osteoblasts (G) and c-jun^null MEFs (H) after six hours treatment. (I) Chromatin immunoprecipitation of MEFs after six hours. […] IgG precipitation served as negative control and amplification of the input as positive control. […] At day 10, ALP activity was determined and at day 20, Alizarin Red staining was performed. (K) Quantification of ALP-positive cells treated as in (J) after 10 days. (L) qRT-PCR-determined Runx2 mRNA expression level in cells treated as in (J) after 10 days.
# FIG. 13. Effects of GR regulated soluble factors on osteoblast cell numbers. […] At day 10 cell counts were determined by automatic microscopy. Data are represented as mean+/−SEM. *<0.05.
# FIG. 14. Effects of GR regulated soluble factors on osteoblast cell differentiation. Primary wild type osteoblasts were differentiated with or without Dex. At day 10 the specific ALP activity was determined and is depicted as ALP positive cells in percent in the absence or presence of NGF (A), IL-6 (B), EGF (C) and LIF (D). Data are represented as mean+/−SEM. * p<0.05; ** p<0.01.
# Primary osteoblasts were isolated from either embryonic (E18.5) or neonatal calvaria by sequential digestions and cultivated as previously described (David et al., 2005). c-Jun-deficient cells were obtained from previously described mice (Schreiber et al., 1999). […] Differentiation of osteoblasts was determined by staining for ALP activity (ALP kit, Sigma or ELF® Phosphatase Detection Kit, ATCC) or by Alizarin Red staining (Sigma) at indicated time points. Apoptosis was detected by In situ Cell Death Detection Kit (Roche), and proliferation with fluorescent immunohistochemistry using mouse anti-Ki-67 (BD Pharmingen™) and Alexa Fluor® 594-labeled donkey anti-mouse IgG (Molecular Probes™). Quantification of the stainings and cell numbers according to DAPI labeling was performed by automated microscopy using Cellomics ArrayScan and software HCS Scan® (Thermo-Fischer). The factors EGF (Calbiochem), NGF2 (Sigma), IL-6 (ImmunoTools), IL-11 (Antigenix America, Inc.) and LIF (Chemicon) were added to the culture after differentiation at concentrations of 0.8, 4 and 20 ng/ml. qRT-PCR was performed as previously described (Tuckermann et al., 2007). Primer information can be provided upon request.
# human cells = details: cited from earlier work
# [6] = wild type (GR^flox) mice, prednisolone for two weeks
# Protocol for 10-week-old female mice: Vertebral bodies of 10-week-old female GR^Runx2cre and GR^flox mice treated with placebo (Plac) or prednisolone (Pred; 12.5 mg/kg/day) for two weeks were analyzed by (A) von Kossa staining of undecalcified sections and (B) histomorphometry of BV/TV and TbTh. (C) DPD/Cr levels in urine of mice after prednisolone treatment at indicated times. (D) Histomorphometry of osteoblast number/bone perimeter (NOb/BPm), osteocyte number/bone area (NOy/BAR) and osteoclast number/bone perimeter (NOc/BPm). (E) Fluorescent micrographs of dual calcein labeling and (F) its quantitative analysis of bone formation rate/bone surface (BFR/BS). (G) Number of CFU-OBs within the bone marrow/leg (femur and tibia) and (H) qRT-PCR-determined Col1a1 mRNA expression in long bones of mice treated with placebo or prednisolone for three days. (I) Fluorescent micrographs of dual calcein labeling and (J) its quantitative analysis of BFR/BS in tibiae of GR^LysMcre and corresponding GR^flox control mice.
# (A) Fluorescent micrographs of dual calcein labeling and (B) its quantitative analysis of BFR/BS in vertebrae of GR^dim and wild type (wt) mice treated as described in FIG. 2. (C) Vertebral bodies were analyzed by von Kossa staining of undecalcified sections. (D) Histomorphometry of BV/TV, TbTh, (E) NOb/BPm, NOy/BAR and NOc/BPm. (F) Number of CFU-OBs within the bone marrow/leg and (G) qRT-PCR-determined Col1a1 mRNA expression in long bones of mice treated with placebo or prednisolone for three days. (H) DPD/Cr levels in urine of mice after prednisolone treatment at indicated times.
# All animal experiments were performed in accordance with accepted standards of animal welfare and with permission of the responsible authorities of Baden-Württemberg and Thüringen. […] To induce osteoporosis, prednisolone (or a placebo control) was applied for 14 days by subcutaneous implantation of slow-release pellets resulting in a calculated dose of 12.5 mg/kg/d (15 mg; 60-day release; Innovative Research of America, Inc.) in 10-week-old female mice.
# Parameters of static and dynamic histomorphometry were quantified on toluidine blue-stained undecalcified proximal tibia and lumbar vertebral sections as described previously (Amling et al., 1999) using the Osteo-histomorphometry system (Osteometrics, Atlanta, Ga., USA) (Parfitt et al., 1987). Osteocytes were assessed at the cortical bone by OsteoMeasure™ software. To assess dynamic histomorphometric indices, mice were given two injections of calcein, nine and two days before dissection. Fluorochrome measurements for the determination of the bone formation rate were performed on two nonconsecutive 12-μm-thick sections for each animal. Statistical differences between the groups (n=5-6) were assessed by the Student's t-test.
compound,measurement,setting,value
CNCC(Cl)c1ccc(OC(C)=O)cc1.Cl (stereo not drawn) [Compound A],osteoblast differentiation and osteoblast markers in vitro,primary osteoblasts,does not affect
same,osteoblast markers in vivo,DBA/1 mice,does not affect
same,result in the method for identifying agents,[1],tested as a hit
same,AP-1 dependent gene MMP-13,MMP-13,repressed
same,IL-11 signaling,IL-11 signaling,not IL-11 signaling
same,proinflammatory gene expression,[2],inhibits proinflammatory gene expression
C[C@]12C=CC(=O)C=C1CC[C@@H]1[C@@H]2[C@@H](O)C[C@@]2(C)[C@H]1CC[C@]2(O)C(=O)CO [prednisolone],bone formation rate,"10-week-old female mice; GR^LysMCre and wild type mice, prednisolone for two weeks",similarly reduced
same,"numbers of osteocytes, osteoblasts and osteoblast surface",10-week-old female mice; GR^Runx2Cre mice,unaltered
same,bone mineral density and trabecular thickness,"10-week-old female mice; GR^Runx2Cre mice, prednisolone for two weeks",not affected
same,"bone formation, dynamic histomorphometry following dual calcein labeling",10-week-old female mice; GR^Runx2cre mice,fully protected
same,bone formation,10-week-old female mice; GR^dim and wild type mice,similarly repressed
same,bone mass and trabecular thickness of the vertebrae,10-week-old female mice; GR^dim and wild type mice,reduced to a comparable degree
same,osteoblast and osteocyte numbers,10-week-old female mice; GR^dim and wild type mice,strong reduction
same,osteoclast numbers,10-week-old female mice; GR^dim and wild type mice,not changed
same,resorption (DPD/Cr),10-week-old female mice; GR^dim and wild type mice,slightly decreased
same,osteoclast numbers,10-week-old female mice; GR^flox and GR^Runx2Cre mice,not affected
same,"Resorption, deoxypyridinoline (DPD/Cr) levels","10-week-old female mice; GR^flox and GR^Runx2Cre mice, urine",slightly decreased
same,"numbers of osteocytes, osteoblasts and osteoblast surface",10-week-old female mice; GR^flox mice,decreased
same,unspecific toxic effects of the prednisolone dose,"10-week-old female mice; mouse, in vivo",no unspecific toxic effects
same,reduction of osteocytes,10-week-old female mice; prednisolone treated mice,20-35%
same,"bone formation, dynamic histomorphometry following dual calcein labeling",10-week-old female mice; vertebrae of wild type mice,almost complete inhibition
same,bone mineral density in vertebral bones,10-week-old female mice; [6],reduced
same,trabecular thickness,10-week-old female mice; [6],decreased
same,TUNEL and BrdU pulse labeling within bone tissue,bone tissue of mice,did not alter
same,trabecular thickness,"[3]; prednisolone pellets 12 mg/kg/day, also in LIF treated animals",reduction of trabecular thickness
same,Col1a1 expression in long bones,[4]; GR^Runx2Cre mice,remained unchanged
same,"osteoblastogenesis, colony forming units of osteoblasts (CFU-OBs)",[4]; GR^Runx2Cre mice,not in GR^Runx2Cre mice
same,Col1a1 expression,[4]; GR^dim and wild type mice,similarly reduced in both genotypes
same,Osteoblastogenesis in vitro (CFU-OBs),[4]; GR^dim and wild type mice,as efficiently suppressed in GR^dim as in wild type mice
same,Col1a1 expression in long bones,[4]; GR^flox mice,strongly reduced
same,"osteoblastogenesis, colony forming units of osteoblasts (CFU-OBs)",[4]; GR^flox mice,strongly impaired
IL-6: Interleukin 6 added to osteoblast cultures,rescue of Dex-reduced osteoblast cell numbers,[5],neither rescued the reduced cell numbers
"LIF: Leukaemia inhibitory factor, secreted polyfunctional cytokine; recombinant protein",rescue of Dex-impaired osteoblast differentiation (ALP positive cells),[5],potently antagonized; also recorded: ameliorated the inhibition of osteoblast differentiation
same,rescue of Dex-reduced osteoblast cell numbers,[5],not rescuing
same,trabecular number,"[3]; LIF i.p. 0.2 mg/kg/day, 15 days",strong increase
same,bone mass (bone volume/tissue volume),"[3]; sham treated and prednisolone treated animals, LIF i.p. 0.2 mg/kg/day, 15 days",increases bone mass
"epidermal growth factor: epidermal growth factor, evokes HB-EGF signaling in osteoblasts (NSDSECPLSHDGYCLHDGVCMYIEALDKYACNCVVGYIGERCQYRDLKWWELR; not fully specified; Epidermal growth factor; UniProt P01133 971-1023, looked up)",rescue of Dex-impaired osteoblast differentiation (ALP positive cells),[5],did not prevent the inhibition of differentiation
same,rescue of Dex-reduced osteoblast cell numbers,[5],counteracted the reduction in cell number
human LIF: human mature LIF polypeptide of 180 amino acid residues,activity on human and mouse cells,human cells,equally active on both human and mouse cells
